Source: PubChem BioAssay AID194 (DTP/NCI, 2004)
“And” between values parts separate entries of the source, which are not always exact repeats. Identical values can stand only once. Inconclusive results are not listed.

System: BDF1 mice, B16 melanoma s.c., survival/tumor T/C
Test: NCI In Vivo Anticancer Drug Screen. Data for tumor model B16 Melanoma (subcutaneous) in B6D2F1 (BDF1) mice
Protocol: The antitumor activity of compounds was measured in mice bearing transplantable tumors. Survival or tumor size were measured and the results are expressed as the measurement made in the treated group (T) divided by the measurement made in the vehicle treated control group (C). The tumor model used in this assay is B16 Melanoma (subcutaneous) in B6D2F1 (BDF1) mice

With `CC1CCC(NC(=O)N(CCCl)N=O)CC1` (stereo unspecified) the T/C (endpoint: median survival time, dose: 2.0 mg/kg/injection, schedule: Q02DX009 (ip), vehicle: Klucel (hydroxypropylcellulose) (HPC), higher = longer survival) was 113 % of control, the T/C (endpoint: median survival time, dose: 2.5 mg/kg/injection, schedule: Q04DX003 (ip), vehicle: other, higher = longer survival) was 123 % of control and the T/C (endpoint: median survival time, dose: 4.0 mg/kg/injection, schedule: Q01DX001 (ip), vehicle: saline with Tween-80, higher = longer survival) was 87 % of control. For the same molecule, the T/C (endpoint: median survival time, dose: 5.0 mg/kg/injection, schedule: Q04DX003 (ip), vehicle: other, higher = longer survival) was 104 % of control, the T/C (endpoint: median survival time, dose: 8.0 mg/kg/injection, schedule: Q01DX001 (ip), vehicle: saline with Tween-80, higher = longer survival) was 87 % of control and 120 % of control and the T/C (endpoint: median survival time, dose: 8.0 mg/kg/injection, schedule: Q02DX009 (ip), vehicle: Klucel (hydroxypropylcellulose) (HPC), higher = longer survival) was 189 % of control. The T/C (endpoint: median survival time, dose: 8.0 mg/kg/injection, schedule: Q04DX003 (ip), vehicle: saline with Tween-80, higher = longer survival) was 106 % of control, the T/C (endpoint: median survival time, dose: 10.0 mg/kg/injection, schedule: Q01DX001 (ip), vehicle: other, higher = longer survival) was 111 % of control and the T/C (endpoint: median survival time, dose: 12.0 mg/kg/injection, schedule: Q04DX003 (ip), vehicle: saline with Tween-80, higher = longer survival) was 101 % of control. For the same molecule, the T/C (endpoint: median survival time, dose: 16.0 mg/kg/injection, schedule: Q01DX001 (ip), vehicle: saline with Tween-80, higher = longer survival) was 124 % of control, the T/C (endpoint: median survival time, dose: 16.0 mg/kg/injection, schedule: Q02DX009 (ip), vehicle: Klucel (hydroxypropylcellulose) (HPC), higher = longer survival) was 109 % of control and the T/C (endpoint: median survival time, dose: 18.0 mg/kg/injection, schedule: Q01DX001 (ip), vehicle: saline with Tween-80, higher = longer survival) was 120 % of control. The T/C (endpoint: median survival time, dose: 18.0 mg/kg/injection, schedule: Q04DX003 (ip), vehicle: saline with Tween-80, higher = longer survival) was 192 % of control, the T/C (endpoint: median survival time, dose: 20.0 mg/kg/injection, schedule: Q01DX001 (ip), vehicle: other, higher = longer survival) was 192 % of control and the T/C (endpoint: median survival time, dose: 20.0 mg/kg/injection, schedule: Q04DX003 (ip), vehicle: other, higher = longer survival) was 223 % of control and 256 % of control. The T/C (endpoint: median survival time, dose: 32.0 mg/kg/injection, schedule: Q01DX001 (ip), vehicle: saline with Tween-80, higher = longer survival) was 157 % of control, the T/C (endpoint: median survival time, dose: 36.0 mg/kg/injection, schedule: Q01DX001 (ip), vehicle: saline with Tween-80, higher = longer survival) was 213 % of control and the T/C (endpoint: median tumor weight (est.), dose: 15.0 mg/kg/injection, schedule: Q01DX001 (ip), vehicle: Klucel (hydroxypropylcellulose) (HPC), higher = larger tumour) was 50 % of control and 72 % of control. For the same molecule, the T/C (endpoint: median tumor weight (est.), dose: 30.0 mg/kg/injection, schedule: Q01DX001 (ip), vehicle: Klucel (hydroxypropylcellulose) (HPC), higher = larger tumour) was 68 % of control and the T/C (endpoint: median tumor weight (est.), dose: 60.0 mg/kg/injection, schedule: Q01DX001 (ip), vehicle: Klucel (hydroxypropylcellulose) (HPC), higher = larger tumour) was 45 % of control.

In the case of `CC1=C(/C=C/C(C)=C/C=C/C(C)=C/CO)C(C)(C)CCC1`, the T/C (endpoint: median survival time, dose: 4.0 mg/kg/injection, schedule: Q01DX009 (ip), vehicle: saline with Tween-80, higher = longer survival) was 102 % of control, the T/C (endpoint: median survival time, dose: 8.0 mg/kg/injection, schedule: Q01DX009 (ip), vehicle: saline with Tween-80, higher = longer survival) was 94 % of control and the T/C (endpoint: median survival time, dose: 16.0 mg/kg/injection, schedule: Q01DX009 (ip), vehicle: saline with Tween-80, higher = longer survival) was 101 % of control and 117 % of control. For the same molecule, the T/C (endpoint: median survival time, dose: 32.0 mg/kg/injection, schedule: Q01DX009 (ip), vehicle: saline with Tween-80, higher = longer survival) was 100 % of control and 102 % of control and the T/C (endpoint: median survival time, dose: 64.0 mg/kg/injection, schedule: Q01DX009 (ip), vehicle: saline with Tween-80, higher = longer survival) was 92 % of control.

With `O=P1(N(CCCl)CCCl)NCCCO1` (stereo unspecified) the T/C (endpoint: median survival time, dose: 15.0 mg/kg/injection, schedule: Q04DX003 (ip), vehicle: saline, higher = longer survival) was 111 % of control, the T/C (endpoint: median survival time, dose: 30.0 mg/kg/injection, schedule: Q04DX003 (ip), vehicle: saline, higher = longer survival) was 123 % of control and the T/C (endpoint: median survival time, dose: 60.0 mg/kg/injection, schedule: Q04DX003 (ip), vehicle: saline, higher = longer survival) was 171 % of control. The T/C (endpoint: median survival time, dose: 120.0 mg/kg/injection, schedule: Q04DX003 (ip), vehicle: saline, higher = longer survival) was 193 % of control, the T/C (endpoint: median survival time, dose: 200.0 mg/kg/injection, schedule: Q01DX001 (ip), vehicle: saline, higher = longer survival) was 158 % of control and the T/C (endpoint: median tumor weight (est.), dose: 50.0 mg/kg/injection, schedule: Q01DX009 (ip), vehicle: saline, higher = larger tumour) was 19 % of control and 40 % of control. The T/C (endpoint: median tumor weight (est.), dose: 100.0 mg/kg/injection, schedule: Q01DX009 (ip), vehicle: saline, higher = larger tumour) was 19 % of control.

For `CCOC(=O)C(CC(C)C)NC(=O)C(Cc1ccc(N(CCCl)CCCl)cc1)NC(C)=O` (stereo unspecified), the T/C (endpoint: median survival time, dose: 1.0 mg/kg/injection, schedule: Q01DX009 (ip), vehicle: other, higher = longer survival) was 91 % of control, the T/C (endpoint: median survival time, dose: 2.0 mg/kg/injection, schedule: Q01DX009 (ip), vehicle: other, higher = longer survival) was 103 % of control and the T/C (endpoint: median survival time, dose: 4.0 mg/kg/injection, schedule: Q01DX009 (ip), vehicle: other, higher = longer survival) was 97 % of control. The T/C (endpoint: median survival time, dose: 16.0 mg/kg/injection, schedule: Q01DX009 (ip), vehicle: other, higher = longer survival) was 89 % of control.

With `Cc1c2ccncc2c(C)c2c1[nH]c1ccccc12` the T/C (endpoint: median survival time, dose: 25.0 mg/kg/injection, schedule: Q04DX003 (ip), vehicle: Klucel (hydroxypropylcellulose) (HPC), higher = longer survival) was 105 % of control, the T/C (endpoint: median survival time, dose: 50.0 mg/kg/injection, schedule: Q04DX003 (ip), vehicle: Klucel (hydroxypropylcellulose) (HPC), higher = longer survival) was 98 % of control and the T/C (endpoint: median survival time, dose: 82.0 mg/kg/injection, schedule: Q04DX003 (ip), vehicle: saline with Tween-80, higher = longer survival) was 122 % of control. For the same molecule, the T/C (endpoint: median survival time, dose: 400.0 mg/kg/injection, schedule: Q01DX001 (ip), vehicle: saline with Tween-80, higher = longer survival) was 112 % of control and the T/C (endpoint: median survival time, dose: 900.0 mg/kg/injection, schedule: Q01DX001 (ip), vehicle: saline with Tween-80, higher = longer survival) was 114 % of control.
